For eight compounds, TGI results are on record in PubChem BioAssay (NCI).

The structures appear in SMILES notation.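 How tested: cells in 96-well plates exposed to compound for 48 hours at five concentrations. TGI is the concentration that stops growth completely.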

Test systems include 786-0 renal; A549 NSCLC; ACHN renal; BT-549 breast; CAKI-1 renal; COLO 205 colon; DU-145 prostate; HCT-116 colon; HOP-62 NSCLC; HS 578T breast; K-562 leukemia; KM12 colon; MDA-N; NCI-H23 lung; OVCAR-5 ovarian; SF-268 CNS; U251 CNS; UACC-62 melanoma; SN12C renal.
Holding throughout (experiment): growth of human tumour cells (NCI), 48 h

On to `C[C@]12CC[C@H]3[C@@H](CC=C4C[C@@H](O)CC[C@@]43C)[C@@H]1C/C(=C/c1ccccc1)[C@@H]2O`, for which the TGI is greater than 51.9 µM with 786-0 renal; greater than 51.5 µM in the test on A549 NSCLC; greater than 61.4 µM in the test on ACHN renal; 72.4 µM in the test on BT-549 breast; greater than 58.9 µM in the test with CAKI-1 renal; 98.9 µM in the test on COLO 205 colon. Further, the TGI in the test with DU-145 prostate was greater than 64.2 µM; in the test with HCT-116 colon, greater than 45.3 µM; in the test on HOP-62 NSCLC, 54.8 µM; with HS 578T breast, 98 µM; with K-562 leukemia, greater than 100 µM; in the test on KM12 colon, greater than 78.8 µM. The TGI is 65.5 µM with MDA-N; greater than 100 µM in the test on NCI-H23 lung; greater than 76.5 µM in the test with OVCAR-5 ovarian; 89.2 µM in the test on SF-268 CNS; greater than 50.5 µM in the test on U251 CNS; 56.5 µM with UACC-62 melanoma.
For the compound `N#Cc1ccc(CSC2=C(c3ccc(Cl)cc3)S/C(=C3\SC(SCc4ccc(C#N)cc4)=C(c4ccc(Cl)cc4)S3)S2)cc1`, the TGI in the test with 786-0 renal, in the test with A549 NSCLC, in the test with ACHN renal, in the test with BT-549 breast, in the test on CAKI-1 renal and in the test with COLO 205 colon was greater than 100 µM each time. Moreover, the TGI in the test with DU-145 prostate, in the test with HCT-116 colon, in the test on HOP-62 NSCLC, in the test on HS 578T breast, with K-562 leukemia and in the test with KM12 colon was greater than 100 µM in each case. Moreover, the TGI with MDA-N, with NCI-H23 lung, in the test with OVCAR-5 ovarian, in the test with SF-268 CNS, with SN12C renal and in the test on U251 CNS was greater than 100 µM in each case. Also, the TGI in the test with UACC-62 melanoma is greater than 100 µM.
Take `Cc1occc1C(=S)Nc1ccc(Cl)c(/C=N/OC(C)(C)C)c1`: the TGI is 49.9 µM in the test on 786-0 renal; 38.6 µM in the test on A549 NSCLC; 30.6 µM in the test with ACHN renal; 32.2 µM in the test with BT-549 breast; 41.1 µM in the test with CAKI-1 renal; 34.1 µM in the test with COLO 205 colon. The TGI is 48.7 µM with DU-145 prostate; 27 µM in the test with HCT-116 colon; 45.9 µM in the test on HOP-62 NSCLC; 51.6 µM in the test on HS 578T breast; greater than 100 µM in the test on K-562 leukemia; 32.3 µM in the test on KM12 colon. In addition, the TGI with MDA-N was determined as 37 µM; in the test on NCI-H23 lung, 34.4 µM; in the test with OVCAR-5 ovarian it was 31.3 µM; with SF-268 CNS, 54.8 µM; in the test on SN12C renal, 31.8 µM; in the test with U251 CNS, 28.5 µM. Moreover, the TGI in the test with UACC-62 melanoma was found to be 28 µM.
`CCOC(=O)c1cc2c3c(c(C(C)=O)c(O)c2[nH]1)N(C(C)=O)CC3`: the TGI in the test with 786-0 renal, in the test with ACHN renal, in the test on BT-549 breast, in the test with CAKI-1 renal, with COLO 205 colon and in the test on DU-145 prostate was greater than 100 µM each time. Also, the TGI in the test on HCT-116 colon, with HOP-62 NSCLC, in the test with HS 578T breast, in the test on K-562 leukemia, with KM12 colon and in the test with MDA-N was greater than 100 µM in each case. In addition, the TGI in the test with NCI-H23 lung, in the test on OVCAR-5 ovarian, in the test with SF-268 CNS, in the test on SN12C renal, with U251 CNS and in the test on UACC-62 melanoma was greater than 100 µM throughout.
Turning to `CC(=O)Oc1ccc2cc(Oc3ccc(Cl)c(Cl)c3)c(=O)oc2c1`, the TGI in the test on 786-0 renal was 52.4 µM; in the test on A549 NSCLC, 94.8 µM; in the test with ACHN renal, 72.6 µM; in the test with BT-549 breast, 34.4 µM; in the test with CAKI-1 renal, 58.7 µM; in the test on DU-145 prostate it was greater than 100 µM. Moreover, the TGI is 39.9 µM in the test on HCT-116 colon; 50.6 µM in the test with HOP-62 NSCLC; greater than 100 µM with HS 578T breast; 69.6 µM in the test with K-562 leukemia; 48.7 µM in the test on KM12 colon; 56.6 µM in the test on MDA-N. The TGI in the test on NCI-H23 lung is greater than 100 µM; in the test with OVCAR-5 ovarian, greater than 100 µM; with SF-268 CNS, greater than 100 µM; in the test with SN12C renal it was 54.1 µM; in the test with U251 CNS, 41.5 µM.
Consider `CC(C)(C)OC(=O)NC(Cc1ccc(O)cn1)C(=O)O` (stereo not given), for which the TGI in the test on 786-0 renal, in the test with A549 NSCLC, with ACHN renal, in the test on BT-549 breast, in the test on CAKI-1 renal and in the test on COLO 205 colon was greater than 100 µM each time. The TGI in the test on DU-145 prostate, in the test with HCT-116 colon, in the test on HOP-62 NSCLC, with HS 578T breast, with K-562 leukemia and in the test with KM12 colon was greater than 100 µM each time. The TGI in the test with MDA-N, in the test with NCI-H23 lung, with OVCAR-5 ovarian, in the test on SF-268 CNS, with SN12C renal and in the test with U251 CNS was greater than 100 µM in each case.
In the case of `COC(=O)C1=C(OC(=O)c2ccccc2)C(C(=O)OC)[C@@]2(O)[C@@H](C(=O)OC)[C@H](C)C[C@@H]1[C@@H]2C(=O)OC` (stereo not given in full), the TGI is greater than 100 µM with 786-0 renal; 71.6 µM with A549 NSCLC; greater than 100 µM in the test on ACHN renal; 78.1 µM in the test on BT-549 breast; greater than 100 µM with CAKI-1 renal; 41.1 µM in the test on COLO 205 colon. Moreover, the TGI was greater than 100 µM in the test on DU-145 prostate; greater than 100 µM in the test with HCT-116 colon; greater than 100 µM in the test with HOP-62 NSCLC; greater than 100 µM in the test with HS 578T breast; greater than 100 µM in the test with KM12 colon; 63.5 µM with MDA-N. In addition, the TGI in the test on NCI-H23 lung, in the test on OVCAR-5 ovarian, with SF-268 CNS, with SN12C renal, in the test with U251 CNS and in the test with UACC-62 melanoma was greater than 100 µM each time.
Consider `O=C(/C=C/c1ccc(C(F)(F)F)cc1)c1c([O-])on[n+]1-c1ccccc1`, for which the TGI in the test with 786-0 renal stood at 1.71 µM; in the test with A549 NSCLC, 12.3 µM; in the test with ACHN renal it was 2.94 µM; with BT-549 breast it was 3.04 µM; with CAKI-1 renal, 0.879 µM; with COLO 205 colon, 4.91 µM. The TGI in the test with DU-145 prostate is 7.17 µM; in the test on HCT-116 colon, 3.85 µM; in the test with HOP-62 NSCLC, 13 µM; in the test on HS 578T breast it was greater than 32.3 µM; in the test on K-562 leukemia, greater than 100 µM; with KM12 colon it was 7.1 µM. In addition, the TGI in the test with MDA-N was 8.69 µM; with NCI-H23 lung, 10 µM; with OVCAR-5 ovarian, 8.06 µM; with SF-268 CNS, greater than 26.2 µM; with SN12C renal, 7.71 µM; in the test on UACC-62 melanoma, 2.81 µM.
